Like-named read-outs stand apart in the source and are kept apart here.
Key:
[1] = target: T1, CYP2D6 (Homo sapiens, UniProt P10635)
[2] = target: T1, CYP2D6; experiment: in vitro; conditions: both, microsomes
[3] = tested on: CYP2B6; experiment: CYP2B6 induction (enzyme activity) in single-donor human hepatocytes; conditions: 1000 µM (positive control)
Procedure: The transport medium was replaced with 200 μL of warm (37 °C) incubation medium (InVitroGRO HI, BioIVT Catalog No. Z99009) and the plate was placed in a humidified 5% carbon dioxide incubator at 37 °C for 24 h.
In addition, test article vehicle (PBS) was added to warm (37°C) InVitroGRO HI Medium in a 5:95 (v:v) ratio. […] The plates were removed from the incubator and the hepatocytes were prepared for the induction assay by replacing the cell culture medium with medium containing either the test article, a control inducer, or vehicle control (200 µL per well). The hepatocyte plates were returned to the cell culture incubator and incubated for 24 h.
On Day 3, induction was repeated following the same steps as described above for the previous day, and plates were returned to the cell culture incubator for an additional 24 h.
After aliquots were taken to measure test article stability, all the remaining medium from each well in the hepatocyte plate was removed, all wells were washed once using 200 μL of blank assay buffer, and then 100 μL of the 1000-fold diluted substrate solutions were added to the appropriate wells. The assay plate was returned to the humidified 5% carbon dioxide incubator at 37 °C for 1 h incubation.
At the end of the incubation time, 100 μL of mRNA lysis buffer was added to each well to stop the reaction. Fifty microliters of this reaction mixture were transferred into a new plate and quenched with 200 μL of ice-cold acetonitrile containing a CYP-specific stable labeled internal standard (250 ng/mL acetaminophen-d4, 250 ng/mL hydroxybupropion-d6, or 250 ng/mL hydroxytestosterone-d3). After removal of the aliquots from the plate for enzyme activity determination, the assay plates were sealed and stored in a −70 °C freezer until use for RT-PCR, mRNA analysis.
For the induction assay samples, an aliquot (50 µL) of the supernatant was transferred to a new plate and diluted with 100 µL Milli-Q water. For the test article stability samples, an aliquot (50 µL) of the supernatant was transferred to a new plate and diluted with 60 µL 0.1% formic acid in Milli-Q water. These samples for the enzyme activity assay and article stability test were refrigerated for storage until analysis. […]
HM1010: Induction Potential of Cytochrome P450 Enzymes
(CYP1A2, CYP2B6 and CYP3A4) Using Human Cryopreserved Hepatocytes
Testing Facility Study No.
The purpose of this in-vitro study was to determine the induction potential of HM1010 on human
cytochrome P450 (CYP) isoenzyme (1A2, 2B6 and 3A4) activity. The study design is
Matrix: Inducible cryopreserved human hepatocytes three single-donor lots
Assay Buffer: InVitroGRO KHB
Substrates: Phenacetin (1A2), Bu propion (2B6), and Testosterone (3A4)
Assay conditions: 48 hours at 37°C in humidified 5% carbon dioxide incubator
Analysis: LC-MS/MS (enzyme activity) and mRNA analysis

[4] = tested on: CYP2B6; experiment: CYP2B6 induction (mRNA expression) in single-donor human hepatocytes; assay type: in vitro ADME; conditions: 1000 µM (control)
Procedure: (§1) RNA isolation and quantification: E-Z 96 Total RNA Kit (Omega Bio-tek, Catalog No. R1034-02) was used for RNA isolation and Quant-iT RNA assay kit (ThermoFisher, Catalog No. Q33140) was used for RNA quantification. The plates were removed from a −80 °C freezer and equilibrated to room temperature. RNA was extracted using the manufacturer’s recommended protocol. Eighty-one microliters of 100% ethanol were added into each well containing 150 µL of lysed sample to make a final ethanol concentration at 35%.
(§2) cDNA generation: For cDNA generation, a High-Capacity cDNA Reverse Transcription Kit (Applied Biosystems, Catalog No. 4319983) and QuantStudio 3 PCR system (Applied Biosystems) were used. In this step, 2X Reverse Transcription Master Mix was prepared using the contents of the kit. Then, 10 µL of total RNA was added to 10 µL of 2X Reverse Transcription Master Mix in a microplate and the plate was sealed. This plate was then run in a thermocycler to generate cDNA.
(§3) Real time PCR: SsoAdvanced Universal SYBR® Green Supermix (BIO-RAD, Catalog No. 172-5270) and the QuantStudio 3 Real-Time PCR system (Applied Biosystems) were used to perform real-time PCR on the generated cDNA. In this step, a PCR mix was prepared using PCR Supermix, SYBR® primers for the targeted genes, and nuclease-free water. Two microliters of ten-fold diluted cDNA samples (5 µL of cDNA into 45 μL of nuclease-free water) were added to 8 µL of PCR Mix in a microplate and sealed. This plate was then run through the Real-Time PCR system to generate the mRNA expression data.
(§4) • Human GAPDH • F: […] • R: […] • Human CYP1A2 • Unique Assay ID: qHsaCID0015160 • Chromosome Location: 15:75045562-75047256 • Human CYP2B6 • F: […] • R: […] • Human CYP3A4 • F: […] • R: […]

[5] = tested on: CYP1A2; experiment: CYP1A2 induction (mRNA expression) in single-donor human hepatocytes; assay type: in vitro ADME; conditions: 50 µM (control)
Procedure: as §1, §2, §3, §4

[6] = target: T2, CYP2C19 (Homo sapiens, UniProt P33261)
[7] = target: T2, CYP2C19; experiment: in vitro; conditions: both, microsomes
[8] = target: T2, CYP2C19; experiment: CYP450 time-dependent inhibition, CYP2C19, pooled human liver microsomes; conditions: Mephenytoin (2C19)
[9] = Stability in potassium phosphate buffers of pH 1.3, 5.5 and 7.4; assay type: physicochemical; conditions: potassium phosphate buffer; for remaining at 1 h, 2 µM: read-out: % Remaining at 60 min
Procedure: The stability of HM-10/10 under varying pH conditions was determined by adding the compound to potassium phosphate buffers of pH 1.3 (acidic), 5.5 (slightly acidic), and 7.4 (physiological pH), with 7-Ethoxycoumarin used as a control article. Under acidic and slightly acidic conditions, the half-life of HM-10/10 could not be determined, as the percentage of HM-10/10 was higher at the end of the time course than at the beginning (Table 3, Figure 3). […] Samples were tested at 2 µM.
The instrument was equipped with an electrospray ionization source (600 °C) operated in the positive-ion mode.

[10] = pH 7.4, % Inhibition at 50 µM No PI + NADPH
[11] = pH 7.4, % Inhibition at 50 µM No PI − NADPH
[12] = pH 7.4, % Inhibition at 50 µM PI + NADPH
[13] = pH 7.4, % Inhibition at 50 µM PI − NADPH

T1 sequence (P10635 whole entry): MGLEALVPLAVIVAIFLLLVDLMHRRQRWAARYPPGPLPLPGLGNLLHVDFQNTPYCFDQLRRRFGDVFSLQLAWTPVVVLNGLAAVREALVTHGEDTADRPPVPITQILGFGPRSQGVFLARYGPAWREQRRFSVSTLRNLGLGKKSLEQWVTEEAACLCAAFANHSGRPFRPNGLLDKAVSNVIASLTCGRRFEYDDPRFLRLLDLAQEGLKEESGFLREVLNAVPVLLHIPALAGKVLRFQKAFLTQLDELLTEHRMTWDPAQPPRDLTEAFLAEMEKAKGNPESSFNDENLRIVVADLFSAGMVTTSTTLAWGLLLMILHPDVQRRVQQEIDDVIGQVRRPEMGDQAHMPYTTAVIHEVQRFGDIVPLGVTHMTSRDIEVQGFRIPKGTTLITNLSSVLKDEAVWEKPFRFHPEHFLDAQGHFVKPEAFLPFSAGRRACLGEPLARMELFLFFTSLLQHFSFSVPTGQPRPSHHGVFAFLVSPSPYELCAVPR
T2 sequence (P33261 whole entry): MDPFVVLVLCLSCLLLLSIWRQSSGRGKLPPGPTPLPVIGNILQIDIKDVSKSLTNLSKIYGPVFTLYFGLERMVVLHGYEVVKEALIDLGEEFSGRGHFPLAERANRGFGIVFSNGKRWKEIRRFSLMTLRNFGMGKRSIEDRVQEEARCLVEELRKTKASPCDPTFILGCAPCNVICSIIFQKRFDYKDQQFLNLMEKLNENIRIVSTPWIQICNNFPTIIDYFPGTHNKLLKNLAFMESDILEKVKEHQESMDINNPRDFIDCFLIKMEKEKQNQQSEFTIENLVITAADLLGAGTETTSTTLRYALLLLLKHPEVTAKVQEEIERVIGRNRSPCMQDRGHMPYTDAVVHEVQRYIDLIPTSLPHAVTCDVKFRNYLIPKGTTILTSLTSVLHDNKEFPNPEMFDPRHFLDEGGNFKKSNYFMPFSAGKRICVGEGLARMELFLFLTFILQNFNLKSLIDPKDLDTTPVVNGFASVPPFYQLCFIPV

SMILES: Fc1ccc([C@@H]2CCNC[C@H]2COc2ccc3c(c2)OCO3)cc1 [Paroxetine, paroxetine]
- Comments (time-dependent inhibition) [1]: +TDI
- inhibition at 30 min, 50 µM [2, 10]: 99%
- inhibition at 30 min, 50 µM [2, 11]: 99.1%
- inhibition at 30 min, 50 µM [2, 12]: 100%
- inhibition at 30 min, 50 µM [2, 13]: 99%

SMILES: CCC1(c2ccccc2)C(=O)NC(=O)NC1=O [Phenobarbital, phenobarbital, reference compound]
- Fold Increase (Enzyme Activity) Lot HH1086 [3]: 11.8 fold
- Fold Increase (Enzyme Activity) Lot HH1142 [3]: 21.4 fold
- Fold Increase (Enzyme Activity) Lot HH1144 [3]: 7.23 fold
- Fold Increase (Enzyme Activity) Mean ([3]; mean of three lots): 13.5 fold
- Comments (mRNA induction) [4]: Induced as Expected
- Fold Increase (mRNA Expression) Lot HH1086 [4]: 15.5 fold
- Fold Increase (mRNA Expression) Lot HH1142 [4]: 22.3 fold
- Fold Increase (mRNA Expression) Lot HH1144 [4]: 7.54 fold
- Fold Increase (mRNA Expression) Mean of 3 Lots [4]: 15.1 fold

SMILES: COc1ccc2[nH]c([S+]([O-])Cc3ncc(C)c(OC)c3C)nc2c1 (stereo not shown) [Omeprazole, omeprazole]
- Comments (mRNA induction) [5]: Induced as Expected
- Comments (time-dependent inhibition) [6]: +TDI
- inhibition at 30 min, 50 µM [7, 10]: 92.9%
- inhibition at 30 min, 50 µM [7, 11]: 93.1%
- inhibition at 30 min, 50 µM [7, 12]: 95.8%
- inhibition at 30 min, 50 µM [7, 13]: 90.7%
- IC50 ([8]; IC50 (µM) No PI + NADPH, No PI + NADPH): 4.77 µM
- IC50 ([8]; IC50 (µM) No PI − NADPH, No PI − NADPH): 5.39 µM

SMILES: CCOc1ccc2ccc(=O)oc2c1 [7-Ethoxycoumarin, reference compound]
- half-life at 2 µM ([9]; Acidic (pH 1.3)): 13.5 h
- remaining at 1 h, 2 µM ([9]; Acidic (pH 1.3)): 89%
- half-life at 2 µM ([9]; Physiological pH (pH 7.4)): 11.8 h
- remaining at 1 h, 2 µM ([9]; Physiological pH (pH 7.4)): 87.5%
- half-life at 2 µM ([9]; Slightly Acidic (pH 5.5)): 16.5 h
- remaining at 1 h, 2 µM ([9]; Slightly Acidic (pH 5.5)): 90%

From article PMC10298982, “Stability Characterization of the Novel Anti-Cancer HM-10/10 HDL-Mimetic Peptide” (International Journal of Molecular Sciences, 2023)
